Laboratory results published in US8093274B2, “Inhibitors of protein prenyltransferases” (The Regents of the University of California, priority 2006, dated 2012).

Experiments:
[1] = target: GGTase I (substrate K-Ras4B) (Homo sapiens, UniProt P49354+P53609); assay: GGTase I filter-binding assay with K-Ras4B as substrate; format: biochemical; conditions: 50 μM compound; DMSO = 100%; smaller numbers indicate better inhibition; first number of pair; read-out: % activity of GGTase I for protein K-Ras4B in the presence of the compound
Procedure: (§1) The pilot library was screened for inhibitors of protein geranylgeranyltransferase type I. Protein prenyltransferase assays were carried out by using filter binding. Two different substrates, RhoA and K-Ras4B, were used for the assay. RhoA ends with the CaaL motif and is an exclusive substrate for GGTase I, while K-Ras4B ends with the CaaX motif and is modified by both GGTase I and FTase.
(§2) The % activity of GGTase I was determined as follows: a working solution that contained each compound in DMSO at the concentration of 1 mM was prepared. The working solution was added to GGTase I reaction mixture so that the final concentration of the compound is 50 μM. GGTase I activity was assayed by incubating [^3H]GGPP with K-Ras4B or RhoA protein in the presence of GGTase I and examining radioactivity incorporated into the substrate protein by spotting onto a filter paper. After washing with TCA, ethanol and acetone, the radioactivity retained on the filter was determined by the use of a scintillation counter. GGTase I activity in the presence of DMSO was taken as a 100% value and the activity in the presence of the compound was shown as percent activity compared with the 100% value. […] For 6-aryl-4-mercapto-N-sulfonyl-piperidine-3-carboxylic acid 11 the 4-mercapto substituent appeared critical to endowing GGTase inhibitory activity. […] 4-Chlorobenzylthio substituent was the next best; 12 compounds out of 21 containing the 4-chlorobenzylthio moiety were active. 4-Benzylthio substituent was also good; 7 piperidines out of 21 bearing 4-benzylthio group were active. […] 19 imines (C15>C12=C41>C40>C01=C11>C05=C10=C30=C35=C37=C38>C02, C03, C04, C06, C39=C43) out of 21 appeared in the GGTIs. […] This corresponds to 47 6-aryl-4-mercapto-N-sulfonyl-piperidine-3-carboxylic acids out of 357 compounds.
(§3) A collection of 138 heterocycles was screened for their ability to inhibit the activity of human GGTase-I to geranylgeranylate K-Ras4B or RhoA. Purified GGTase-1 was incubated with its substrate protein K-Ras4B or RhoA, [^3H]GGPP, and the 138 compounds. After 30 min, the degree of incorporation of tritiated geranylgeranyl groups was measured using a scintillation counter.

[2] = target: GGTase I (substrate RhoA) (Homo sapiens, UniProt P49354+P53609); assay: GGTase I filter-binding assay with RhoA as substrate; format: biochemical; conditions: 50 μM compound; DMSO = 100%; smaller numbers indicate better inhibition; second number of pair; read-out: % activity of GGTase I for protein RhoA in the presence of the compound
Procedure: as §1, §2, §3
The GGTase-I assay was carried out using RhoA as a substrate protein, GGTase-I (JENA Bioscience) and [3H]geranylgeranyl pyrophosphate. Incubation was for 30 min at 37 C. GGTase-H (or RabGGTase) assay was carried out using YPT1 as a substrate protein, GGTase-H (Calbiochem, San Diego, Calif.) plus REP1 (Calbiochem) and [3H]geranylgeranyl pyrophosphate. Incubation was for 30 min at 37 C. FIGS. 20D-20F show the three dimensional structure of GGTase I (D), FTsse (E) and GGTase II (F) which can be obtained from X-ray diffraction studies of protein crystals.

Row | SMILES | activity at 50 µM [1] [%] | activity at 50 µM [2] [%]
1 | COc1ccc([C@H]2C(C(=O)O)=C[C@@H](C(C)(C)C)N2S(=O)(=O)c2ccc(C)cc2)cc1OC | 23.4 | 6.1
2 | Cc1ccccc1S(=O)(=O)N1C(c2ccc(Cl)cc2)CC=C(C(=O)O)[C@@H]1c1cccc(Br)c1 (stereo partly drawn) | 10.6 | 8.8
3 | Cc1cccc([C@H]2C(C(=O)O)=CCC(c3ccc(Cl)cc3)N2S(=O)(=O)c2ccccc2C)c1 (stereo partly drawn) | 15.6 | 12.4
4 | Cc1ccc(S(=O)(=O)N2C(c3ccc(Cl)c(Cl)c3)CC=C(C(=O)O)[C@@H]2c2cccc(C)c2)cc1 (stereo partly drawn) | 12.6 | 10.3
5 | Cc1ccccc1S(=O)(=O)N1C(c2ccc(Cl)cc2)CC=C(C(=O)O)[C@@H]1c1cccc(F)c1 (stereo partly drawn) | 5.4 | 3
6 | Cc1ccccc1S(=O)(=O)N1C(c2ccc(Cl)cc2)CC=C(C(=O)O)[C@@H]1c1ccccc1F (stereo partly drawn) | 8.4 | 4.1
7 | Cc1ccccc1S(=O)(=O)N1C(c2ccc(Cl)cc2)CC=C(C(=O)O)[C@@H]1c1ccc(F)cc1 (stereo partly drawn) | 15.6 | 12.6
8 | Cc1ccc(S(=O)(=O)N2C(c3ccc(Cl)c(Cl)c3)CC=C(C(=O)O)[C@@H]2c2ccc(Cl)cc2)cc1 (stereo partly drawn) | 17.7 | 12.1
9 | Cc1ccc([C@H]2C(C(=O)O)=CCC(c3ccc(Cl)c(Cl)c3)N2S(=O)(=O)c2ccc(C)cc2)cc1 (stereo partly drawn) | 12.4 | 15.6
10 | Cc1ccc(S(=O)(=O)N2C(c3cccc(Br)c3)CC=C(C(=O)O)[C@@H]2c2cccc(Br)c2)cc1 (stereo partly drawn) | 9.4 | 3.7
11 | Cc1ccc(S(=O)(=O)N2C(c3cccc(Cl)c3)CC=C(C(=O)O)[C@@H]2c2cccc(Br)c2)cc1 (stereo partly drawn) | 11 | 7
12 | Cc1ccc(S(=O)(=O)N2C(c3cccc(Br)c3)CC=C(C(=O)O)[C@@H]2c2cccc(Cl)c2)cc1 (stereo partly drawn) | 9.8 | 7.9
13 | Cc1ccc(S(=O)(=O)N2C(c3cccc(Cl)c3)CC=C(C(=O)O)[C@@H]2c2cccc(Cl)c2)cc1 (stereo partly drawn) | 43.7 | 6
14 | Cc1ccc(S(=O)(=O)N2C(c3cccc(Br)c3)CC=C(C(=O)O)[C@@H]2c2cccc(C)c2)cc1 (stereo partly drawn) | 16.1 | 14.3
15 | Cc1ccc(S(=O)(=O)N2C(c3cccc(Br)c3)CC=C(C(=O)O)[C@@H]2c2cccc(F)c2)cc1 (stereo partly drawn) | 17 | 15
16 | Cc1ccc(S(=O)(=O)N2C(c3cccc(Br)c3)CC=C(C(=O)O)[C@@H]2c2ccccc2)cc1 (stereo partly drawn) | 35.2 | 19.4
17 | O=C(O)C1=CCC(c2ccc(Cl)cc2)N(S(=O)(=O)c2ccc(Cl)cc2)[C@H]1c1cccc(Br)c1 (stereo partly drawn) | 8.6 | 5
18 | Cc1ccc(C2CC=C(C(=O)O)[C@H](c3cccc(Br)c3)N2S(=O)(=O)c2ccc(Cl)cc2)cc1 (stereo partly drawn) | 8.4 | 7.4
19 | C=CCS[C@H]1[C@@H](C(=O)O)[C@H](c2ccc(Cl)c(Cl)c2)N(S(=O)(=O)c2ccc(C)cc2)[C@@H]1CCCC | 21.4 | 9.6
20 | CC[C@@H]1[C@@H](SCCC(=O)OC(C)(C)C)[C@@H](C(=O)O)[C@H](c2ccc(Cl)c(Cl)c2)N1S(=O)(=O)c1ccc(C)cc1 | 27.2 | 7.6
21 | CCC[C@@H]1[C@@H](Sc2ccc(OC)cc2)[C@@H](C(=O)O)[C@H](c2ccc(Cl)c(Cl)c2)N1S(=O)(=O)c1ccc(C)cc1 | 10.9 | 1.1
22 | C=CCS[C@H]1[C@@H](C(=O)O)[C@H](c2ccc(Cl)c(Cl)c2)N(S(=O)(=O)c2ccc(C)cc2)[C@@H]1CCCCCC | 15.1 | 6.8
23 | Cc1ccc(S(=O)(=O)N2[C@H](CC3CCCC3)[C@@H](SCCC(=O)OC(C)(C)C)[C@@H](C(=O)O)[C@@H]2c2ccc(Cl)c(Cl)c2)cc1 | 16.1 | 7.3

Row | SMILES | activity at 50 µM [1] [%] | activity at 50 µM [2] [%]
24 | C=CCS[C@H]1[C@@H](C(=O)O)[C@H](c2ccc(Cl)c(Cl)c2)N(S(=O)(=O)c2ccc(C)cc2)[C@@H]1CC1CCCC1 | 12.1 | 8.6
25 | C=CCS[C@H]1[C@@H](C(=O)O)[C@H](c2ccc(Cl)cc2)N(S(=O)(=O)c2ccccc2C)[C@@H]1CCC | 28.4 | 8.9
26 | Cc1ccccc1S(=O)(=O)N1[C@H](CC2CCCC2)[C@@H](SCCC(=O)OC(C)(C)C)[C@@H](C(=O)O)[C@@H]1c1ccc(Cl)cc1 | 10 | 7.8
27 | C=CCS[C@H]1[C@@H](C(=O)O)[C@H](c2ccc(Cl)cc2)N(S(=O)(=O)c2ccccc2C)[C@@H]1CCCC | 23.1 | 8.4
28 | C=CCS[C@H]1[C@@H](C(=O)O)[C@H](c2ccc(Cl)cc2)N(S(=O)(=O)c2ccccc2C)[C@@H]1CCCCCC | 24.9 | 6
29 | C=CCS[C@H]1[C@@H](C(=O)O)[C@H](c2ccc(Cl)cc2)N(S(=O)(=O)c2ccccc2C)[C@@H]1CC1CCCC1 | 22.4 | 4.9
30 | CCC[C@@H]1[C@@H](SCCC(=O)OC(C)(C)C)[C@@H](C(=O)O)[C@H](c2ccc(Cl)cc2)N1S(=O)(=O)c1ccc(Cl)cc1 | 21.7 | 9.2
31 | COc1ccc(S[C@H]2[C@@H](C(=O)O)[C@H](c3ccc(Cl)cc3)N(S(=O)(=O)c3ccc(Cl)cc3)[C@@H]2C(C)C)cc1 | 48.7 | 8
32 | CC(C)(C)OC(=O)CCS[C@H]1[C@@H](C(=O)O)[C@H](c2ccc(Cl)cc2)N(S(=O)(=O)c2ccc(Cl)cc2)[C@@H]1CC1CCCC1 | 22.5 | 9.8
33 | CC(C)(C)OC(=O)CCS[C@H]1[C@@H](C(=O)O)[C@H](c2ccc(Cl)cc2)N(S(=O)(=O)c2ccccc2)[C@@H]1CC1CCCC1 | 30.4 | 9.7
34 | C=CCS[C@H]1[C@@H](C(=O)O)[C@H](c2ccc(C#N)cc2)N(S(=O)(=O)c2ccc(C)cc2)[C@@H]1C(C)C | 23.1 | 9.3
35 | C=CCS[C@H]1[C@@H](C(=O)O)[C@H](c2ccc(C#N)cc2)N(S(=O)(=O)c2ccc(C)cc2)[C@@H]1CCCCCC | 21.5 | 6
36 | C=CCS[C@H]1[C@@H](C(=O)O)[C@H](c2ccc(Br)cc2)N(S(=O)(=O)c2ccc(C)cc2)[C@@H]1CCC | 9.8 | 7.5
37 | C=CCS[C@H]1[C@@H](C(=O)O)[C@H](c2ccc(Br)cc2)N(S(=O)(=O)c2ccc(C)cc2)[C@@H]1CCCCCC | 15.5 | 5.5
38 | Cc1ccc(S(=O)(=O)N2[C@H](CC3CCCC3)[C@@H](SCCC(=O)OC(C)(C)C)[C@@H](C(=O)O)[C@@H]2c2cccc(Cl)c2)cc1 | 20.6 | 5.6
39 | CC[C@@H]1[C@@H](Sc2ccc(OC)cc2)[C@@H](C(=O)O)[C@H](c2cccc(Cl)c2)N1S(=O)(=O)c1ccc(C)cc1 | 25.5 | 6.5
40 | C=CCS[C@H]1[C@@H](C(=O)O)[C@H](c2ccc(OC)c(OC)c2)N(S(=O)(=O)c2ccc(C)cc2)[C@@H]1CCCCCC | 22.3 | 8.1
41 | C=CCS[C@H]1[C@@H](C(=O)O)[C@H](c2ccc(Cl)cc2)N(S(=O)(=O)c2ccc(C)cc2)[C@@H]1CC1CCCC1 | 25.2 | 7.7
42 | C=CCS[C@H]1[C@@H](C(=O)O)[C@H](c2ccc(C(C)C)cc2)N(S(=O)(=O)c2ccc(C)cc2)[C@@H]1CC1CCCC1 | 31.7 | 6.1
43 | CCC[C@@H]1[C@@H](Sc2ccc(C)cc2)[C@@H](C(=O)O)[C@H](c2cccc(F)c2)N1S(=O)(=O)c1ccc(C)cc1 | 14.7 | 4.1
44 | CCCCCS[C@H]1[C@@H](C(=O)O)[C@H](c2cccc(F)c2)N(S(=O)(=O)c2ccc(C)cc2)[C@@H]1CCCC | 23.5 | 7.1
45 | CCCC[C@@H]1[C@@H](Sc2ccc(C)cc2)[C@@H](C(=O)O)[C@H](c2cccc(F)c2)N1S(=O)(=O)c1ccc(C)cc1 | 31.5 | 7.1
